Laboratory results published in a compilation of properties of binary mixtures (doi:10.1016/j.molliq.2017.08.056).
Several values for one entry are separate records, joined by “and”; a condition that tells them apart may be missing. Identical values can stand only once.

Experiment: xn = mol fraction of the nth substance listed
Details: 101 kPa

| SMILES | electrical conductivity (288.15 K, x2 = 0) | viscosity (288.15 K, x2 = 0) | electrical conductivity (298.15 K, x2 = 0) | electrical conductivity (308.15 K, x2 = 0) | electrical conductivity (288.15 K, x1 = 0.0001) | electrical conductivity (298.15 K, x1 = 0.0001) | viscosity (298.15 K, x1 = 0.0001) | electrical conductivity (308.15 K, x1 = 0.0001) | viscosity (308.15 K, x1 = 0.0001) |
| --- | --- | --- | --- | --- | --- | --- | --- | --- | --- |
| O + CCCC[n+]1ccn(C)c1.[Br-] | 0.0001 S/m | 1.133 mPa·s | 0.0001 S/m | 0.0002 S/m | – | – | – | – | – |
| CCCC[n+]1ccn(C)c1.[Br-] + O | – | – | – | – | 0.0311 S/m and 0.0454 S/m and 0.0612 S/m | 0.0389 S/m and 0.0568 S/m and 0.0759 S/m | 0.892 mPa·s and 0.894 mPa·s | 0.069 S/m | 0.731 mPa·s |
